Data from patent publication US9580437B2, “Triazolopyrimidine compounds and uses thereof” (Novartis AG, priority 2014, dated 2017).

Columns and labels:
[1] = biological target: EED (1-441)-His protein (Homo sapiens (Human), UniProt O75530); test: EED-H3K27Me3 peptide competition binding assay by AlphaScreen; conditions: read-out: (a) IC50 EED Alphascreen binding Qualified
Source text: EED-H3K27Me3 peptide competition binding assay by AlphaScreen (α-screen)

[2] = biological target: wild type PRC2 (wtPRC2) complex (Homo sapiens (Human), UniProt O75530); test: EED LC-MS assay; assay type: biochemical; conditions: read-out: (b) IC50 EED LC-MS Qualified
Method: A 6 μL solution of 3 μM of the peptide substrate H3K27Me0 (histone H3[21-44]-biotin) in reaction buffer was added to initiate each reaction. […] ELISA (H3K27 Methylation) Assay

Sequence of wild type PRC2 (wtPRC2) complex (O75530 whole entry): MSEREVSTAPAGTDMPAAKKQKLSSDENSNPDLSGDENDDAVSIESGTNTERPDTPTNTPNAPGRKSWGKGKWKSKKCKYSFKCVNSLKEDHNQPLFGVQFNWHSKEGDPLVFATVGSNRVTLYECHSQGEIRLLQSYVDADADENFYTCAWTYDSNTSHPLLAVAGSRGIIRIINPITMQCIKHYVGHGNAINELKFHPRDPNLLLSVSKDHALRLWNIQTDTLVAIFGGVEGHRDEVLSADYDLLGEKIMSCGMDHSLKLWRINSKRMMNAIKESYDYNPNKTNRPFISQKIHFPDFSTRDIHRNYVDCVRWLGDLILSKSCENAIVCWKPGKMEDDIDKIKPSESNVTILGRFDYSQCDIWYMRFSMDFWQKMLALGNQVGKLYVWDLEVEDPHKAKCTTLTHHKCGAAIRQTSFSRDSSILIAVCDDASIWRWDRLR
Sequence of wild type PRC2 (wtPRC2) complex (Q15910 whole entry partner): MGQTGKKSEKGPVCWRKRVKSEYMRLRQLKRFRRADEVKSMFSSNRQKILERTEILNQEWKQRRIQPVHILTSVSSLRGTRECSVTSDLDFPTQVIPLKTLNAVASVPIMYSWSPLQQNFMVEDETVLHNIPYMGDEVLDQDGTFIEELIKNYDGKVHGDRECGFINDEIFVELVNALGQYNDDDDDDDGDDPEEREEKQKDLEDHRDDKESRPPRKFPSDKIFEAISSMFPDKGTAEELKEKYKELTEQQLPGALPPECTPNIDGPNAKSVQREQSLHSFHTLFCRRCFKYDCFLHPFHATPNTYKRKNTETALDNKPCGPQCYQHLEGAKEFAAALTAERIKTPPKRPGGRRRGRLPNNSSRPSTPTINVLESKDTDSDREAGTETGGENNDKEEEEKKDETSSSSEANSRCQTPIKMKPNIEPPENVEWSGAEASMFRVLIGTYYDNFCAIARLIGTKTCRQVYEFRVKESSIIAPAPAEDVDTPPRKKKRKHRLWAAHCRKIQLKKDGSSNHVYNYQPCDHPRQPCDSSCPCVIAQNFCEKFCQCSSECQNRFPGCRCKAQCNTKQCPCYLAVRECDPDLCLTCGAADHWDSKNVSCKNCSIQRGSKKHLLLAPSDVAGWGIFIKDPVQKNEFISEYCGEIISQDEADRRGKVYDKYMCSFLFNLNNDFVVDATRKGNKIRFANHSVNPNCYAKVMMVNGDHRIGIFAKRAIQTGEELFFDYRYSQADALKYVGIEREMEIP
Sequence of wild type PRC2 (wtPRC2) complex (Q15022 whole entry partner): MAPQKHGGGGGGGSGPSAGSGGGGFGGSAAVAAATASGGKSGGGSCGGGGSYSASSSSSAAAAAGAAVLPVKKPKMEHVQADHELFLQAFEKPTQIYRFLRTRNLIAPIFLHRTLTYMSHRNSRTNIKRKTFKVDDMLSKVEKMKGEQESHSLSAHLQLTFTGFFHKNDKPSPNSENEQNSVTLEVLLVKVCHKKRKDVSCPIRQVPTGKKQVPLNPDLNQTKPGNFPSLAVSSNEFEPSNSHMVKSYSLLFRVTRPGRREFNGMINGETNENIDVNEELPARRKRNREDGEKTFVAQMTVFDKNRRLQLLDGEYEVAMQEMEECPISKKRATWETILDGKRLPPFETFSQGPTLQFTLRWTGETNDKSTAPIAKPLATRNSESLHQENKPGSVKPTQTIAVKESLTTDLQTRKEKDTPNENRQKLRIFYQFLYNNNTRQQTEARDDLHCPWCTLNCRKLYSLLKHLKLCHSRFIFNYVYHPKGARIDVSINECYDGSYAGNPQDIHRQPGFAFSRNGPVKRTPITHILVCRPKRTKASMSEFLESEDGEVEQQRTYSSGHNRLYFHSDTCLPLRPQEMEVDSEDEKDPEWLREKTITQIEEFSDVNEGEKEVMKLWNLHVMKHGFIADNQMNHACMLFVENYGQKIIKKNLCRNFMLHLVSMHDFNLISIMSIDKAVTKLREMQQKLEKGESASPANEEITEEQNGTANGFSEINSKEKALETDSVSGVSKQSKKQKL
Sequence of EED (1-441)-His protein (O75530 whole entry): as the sequence (O75530 whole entry) above

| SMILES | IC50 [1] [nM] | IC50 [2] [nM] |
| --- | --- | --- |
| CN(C)c1ncc(-c2cnc(NCc3cccc4c3CCO4)n3cnnc23)cn1 [Example 88, N-((2,3-dihydrobenzofuran-4-yl)methyl)-8-(2-(dimethylamino)pyrimidin-5-yl)-[1,2,4]triazolo[4,3-c]pyrimidin-5-amine] | 25.7 | 34.7 |
| CC(c1ccc(-c2cnc(NCc3cccc4occc34)n3cnnc23)cc1)N1CCCC1 (centres unmarked) [Example 210, N-(benzofuran-4-ylmethyl)-8-(4-(1-(pyrrolidin-1-yl)ethyl)phenyl)-[1,2,4]triazolo[4,3-c]pyrimidin-5-amine] | 18.5 | 21.4 |
| c1ccc(-c2cnc(NCc3cccc4occc34)n3cnnc23)cc1 [Example 217, N-(benzofuran-4-ylmethyl)-8-phenyl-[1,2,4]triazolo[4,3-c]pyrimidin-5-amine] | 363 | 111 |
| CN(C)CCN(C)C(=O)c1ccc(-c2cnc(NCc3cccc4c3CCO4)n3cnnc23)cn1 [Example 102] | 33.9 | 68.8 |
| O=C1OCCN1c1ccc(-c2cnc(NCc3cccc4c3CCO4)n3cnnc23)cn1 [Example 117, 3-(5-(5-(((2,3-dihydrobenzofuran-4-yl)methyl)amino)-[1,2,4]triazolo[4,3-c]pyrimidin-8-yl)pyridin-2-yl)oxazolidin-2-one] | 23.5 | 29.4 |
| CN(C)CCc1cccc(-c2cnc(NCc3cccc4c3CCO4)n3cnnc23)c1 [Example 89, N-((2,3-dihydrobenzofuran-4-yl)methyl)-8-(3-(2-(dimethylamino)ethyl)phenyl)-[1,2,4]triazolo[4,3-c]pyrimidin-5-amine] | 4.5 | 10.3 |
| O=C1CN(Cc2ccc(-c3cnc(NCc4cccc5c4CCO5)n4cnnc34)cn2)CCN1 [Example 133, 4-((5-(5-(((2,3-dihydrobenzofuran-4-yl)methyl)amino)-[1,2,4]triazolo[4,3-c]pyrimidin-8-yl)pyridin-2-yl)methyl)piperazin-2-one] | 8.7 | 22.3 |
| CS(=O)(=O)c1ccc(-c2cnc(NCc3cccc4occc34)n3cnnc23)cc1 [Example 214, N-(benzofuran-4-ylmethyl)-8-(4-(methylsulfonyl)phenyl)-[1,2,4]triazolo[4,3-c]pyrimidin-5-amine] | 37.4 | 22.5 |
| FC1(F)CCN(CCc2ccc(-c3cnc(NCc4cccc5c4CCO5)n4cnnc34)cn2)C1 [Example 100, 8-(6-(2-(3,3-difluoropyrrolidin-1-yl)ethyl)pyridin-3-yl)-N-((2,3-dihydrobenzofuran-4-yl)methyl)-[1,2,4]triazolo[4,3-c]pyrimidin-5-amine] | 14 | 31.5 |
| c1cc(CNc2ncc(-c3cncc(N4CCNCC4)c3)c3nncn23)c2c(c1)OCC2 [Example 77, N-((2,3-dihydrobenzofuran-4-yl)methyl)-8-(5-(piperazin-1-yl)pyridin-3-yl)-[1,2,4]triazolo[4,3-c]pyrimidin-5-amine] | 21.6 | 52.3 |
| Cc1cc(-c2cnc(NCc3cccc4c3CCO4)n3cnnc23)cnc1N1CCCC1 [Example 103, N-((2,3-dihydrobenzofuran-4-yl)methyl)-8-(5-methyl-6-(pyrrolidin-1-yl)pyridin-3-yl)-[1,2,4]triazolo[4,3-c]pyrimidin-5-amine] | 728 | 431 |
| OCCN1CCN(c2ccc(-c3cnc(NCc4cccc5c4CCO5)n4cnnc34)cn2)CC1 [Example 110, 2-(4-(5-(5-(((2,3-dihydrobenzofuran-4-yl)methyl)amino)-[1,2,4]triazolo[4,3-c]pyrimidin-8-yl)pyridin-2-yl)piperazin-1-yl)ethanol] | 9.3 | 15.2 |
| CS(=O)(=O)Nc1ccc(-c2cnc(NCc3cccc4c3CCO4)n3cnnc23)cc1 [Example 19, N-(4-(5-(((2,3-dihydrobenzofuran-4-yl)methyl)amino)-[1,2,4]triazolo[4,3-c]pyrimidin-8-yl)phenyl)methanesulfonamide] | 18.9 | 19.2 |

Other lines, results leading:

| IC50 [1] [nM] | IC50 [2] [nM] | SMILES |
| --- | --- | --- |
| 7.5 | 10.6 | Cc1nc(OC2CC2)ncc1-c1cnc(NCc2c(F)ccc3c2CCO3)n2cnnc12 [Example 225, 8-(2-cyclopropoxy-4-methylpyrimidin-5-yl)-N-((5-fluoro-2,3-dihydrobenzofuran-4-yl)methyl)-[1,2,4]triazolo[4,3-c]pyrimidin-5-amine] |
| 7.3 | 7.9 | Cc1c(-c2cnc(NCc3c(F)ccc4c3CCO4)n3cnnc23)ccnc1F [Example 180, N-((5-fluoro-2,3-dihydrobenzofuran-4-yl)methyl)-8-(2-fluoro-3-methylpyridin-4-yl)-[1,2,4]triazolo[4,3-c]pyrimidin-5-amine] |
| 3.8 | 13.1 | Fc1ccc2c(c1CNc1ncc(-c3cncnc3C(F)F)c3nncn13)CCO2 [Example 191, 8-(4-(difluoromethyl)pyrimidin-5-yl)-N-((5-fluoro-2,3-dihydrobenzofuran-4-yl)methyl)-[1,2,4]triazolo[4,3-c]pyrimidin-5-amine] |
| 19 | 17.4 | CNc1cc(F)c(-c2cnc(NCc3cccc4c3CCO4)n3cnnc23)cn1 [Example 111, N-((2,3-dihydrobenzofuran-4-yl)methyl)-8-(4-fluoro-6-(methylamino)pyridin-3-yl)-[1,2,4]triazolo[4,3-c]pyrimidin-5-amine] |
| 4.2 | 7.2 | Cc1nc(C(=O)N(C)C)ccc1-c1cnc(NCc2c(F)ccc3c2CCO3)n2cnnc12 [Example 199, 5-(5-(((5-fluoro-2,3-dihydrobenzofuran-4-yl)methyl)amino)-[1,2,4]triazolo[4,3-c]pyrimidin-8-yl)-N,N,6-trimethylpicolinamide] |
| 2.6 | 8.8 | Cc1cc(S(C)(=O)=O)ncc1-c1cnc(NCc2c(F)ccc3c2CCO3)n2cnnc12 [Example 127, N-((5-fluoro-2,3-dihydrobenzofuran-4-yl)methyl)-8-(4-methyl-6-(methylsulfonyl)pyridin-3-yl)-[1,2,4]triazolo[4,3-c]pyrimidin-5-amine] |
| 17 | 45.3 | COc1ccc(-c2cnc(NCc3c(F)ccc4c3CCO4)n3cnnc23)c(C)n1 [Example 155, N-((5-fluoro-2,3-dihydrobenzofuran-4-yl)methyl)-8-(6-methoxy-2-methylpyridin-3-yl)-[1,2,4]triazolo[4,3-c]pyrimidin-5-amine] |
| 53.6 | 47.7 | c1ccc(-c2cnc(NCc3cccc4c3CCO4)n3cnnc23)cc1 [Example 13, N-((2,3-dihydrobenzofuran-4-yl)methyl)-8-phenyl-[1,2,4]triazolo[4,3-c]pyrimidin-5-amine] |
| 10.2 | 23.2 | Cc1cn(-c2cnc(NCc3c(F)ccc4c3CCO4)n3cnnc23)c(C)n1 [Example 236, 8-(2,4-dimethyl-1H-imidazol-1-yl)-N-((5-fluoro-2,3-dihydrobenzofuran-4-yl)methyl)-[1,2,4]triazolo[4,3-c]pyrimidin-5-amine] |
| 12.3 | 20.7 | CS(=O)(=O)c1ccc(-c2cnc(NCc3c(F)ccc4c3CCO4)n3cnnc23)cc1 [Example 37, N-((5-fluoro-2,3-dihydrobenzofuran-4-yl)methyl)-8-(4-(methylsulfonyl)phenyl)-[1,2,4]triazolo[4,3-c]pyrimidin-5-amine] |
| 17.1 | 42 | COc1ncccc1-c1cnc(NCc2c(F)ccc3c2CCO3)n2cnnc12 [Example 141, N-((5-fluoro-2,3-dihydrobenzofuran-4-yl)methyl)-8-(2-methoxypyridin-3-yl)-[1,2,4]triazolo[4,3-c]pyrimidin-5-amine] |
| 15.4 | 59 | OCc1ncccc1-c1cnc(NCc2c(F)ccc3c2C(O)CO3)n2cnnc12 (centres unmarked) [Example 243, 5-fluoro-4-(((8-(2-(hydroxymethyl)pyridin-3-yl)-[1,2,4]triazolo[4,3-c]pyrimidin-5-yl)amino)methyl)-2,3-dihydrobenzofuran-3-ol] |
| 9.1 | 9.5 | Fc1ccc2c(c1CNc1ncc(-c3cncnc3)c3nncn13)CCO2 [Example 206, N-((5-fluoro-2,3-dihydrobenzofuran-4-yl)methyl)-8-(pyrimidin-5-yl)-[1,2,4]triazolo[4,3-c]pyrimidin-5-amine] |
| 6.1 | 6 | Fc1ccc2c(c1CNc1ncc(-c3ccccn3)c3nncn13)CCO2 [Example 231, N-((5-fluoro-2,3-dihydrobenzofuran-4-yl)methyl)-8-(pyridin-2-yl)-[1,2,4]triazolo[4,3-c]pyrimidin-5-amine] |
| 30.9 | 90.2 | Cc1nn(CCO)c(C)c1-c1cnc(NCc2cccc3c2CCO3)n2cnnc12 [Example 67, 2-(4-(5-(((2,3-dihydrobenzofuran-4-yl)methyl)amino)-[1,2,4]triazolo[4,3-c]pyrimidin-8-yl)-3,5-dimethyl-1H-pyrazol-1-yl)ethanol] |
| 6.3 | 9.2 | COc1ncc(-c2cnc(NCc3c(F)ccc4c3CCO4)n3cnnc23)c(C)n1 [Example 175, N-((5-fluoro-2,3-dihydrobenzofuran-4-yl)methyl)-8-(2-methoxy-4-methylpyrimidin-5-yl)-[1,2,4]triazolo[4,3-c]pyrimidin-5-amine] |
| 5.7 | 11.2 | CN(C)C(=O)CCc1ccc(-c2cnc(NCc3cccc4c3CCO4)n3cnnc23)cn1 [Example 135, 3-(5-(5-(((2,3-dihydrobenzofuran-4-yl)methyl)amino)-[1,2,4]triazolo[4,3-c]pyrimidin-8-yl)pyridin-2-yl)-N,N-dimethylpropanamide] |
| 11.3 | 30 | Fc1ccc2c(c1CNc1ncc(-n3cncn3)c3nncn13)CCO2 [Example 241, N-((5-fluoro-2,3-dihydrobenzofuran-4-yl)methyl)-8-(1H-1,2,4-triazol-1-yl)-[1,2,4]triazolo[4,3-c]pyrimidin-5-amine] |
